Results: paper PMC9161374 (Science Translational Medicine, 2022)
Where “and” joins values, the source holds several entries; their conditions need not be identical. Identical values can stand only once.

Experiments:
[1] = CCK-8 cell viability assay; format: cell-based, African green monkey; details: African green monkey; Vero E6 cells, 48 h, CCK8
Outline: (§1)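 Vero E6 cells, 20,000/well, exposed to compound at 0–200 μM (0, 0.01, 0.1, 1, 5, 10, 50, 75, 100, 200 μM) for 48 h; viability read by CCK-8 and expressed as percentage versus drug concentration, mean ± SD.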

Vero E6 cells = assay: CCK-8 cell viability assay; format: cell-based, African green monkey; details: individual replicate values, Fig.S4
Outline: as §1

[2] = system: SARS-CoV-2 (B.1) in Huh7 cells; assay: Anti-SARS-CoV-2 activity in Huh7 cells (viral yield by qRT-PCR); format: cell-based; details: B.1, MOI 0.05, 48 h
SARS-CoV-2 (B.1) = assay: Anti-SARS-CoV-2 activity in Vero E6 cells (viral yield by qRT-PCR); format: cell-based
[3] = system: SARS-CoV-2 replicon system (pBAC-SARS-CoV-2-Replicon-Luc); assay: microbe, parasite or virus in culture; format: cell-based; details: Severe acute respiratory syndrome coronavirus 2, HEK-293T, 60 h
[4] = system: SARS-CoV-2 (Beta, B.1.351); assay: microbe, parasite or virus in culture; format: cell-based; details: for % Inhibition: beta
[5] = system: SARS-CoV-2 (Delta, B.1.617.2); assay: microbe, parasite or virus in culture; format: cell-based; details: for % Inhibition: delta

CCC(CC)C(=O)OC[C@H]1O[C@@](C#N)(c2ccc3c(N)ncnn23)[C@H](O)[C@@H]1O [ATV011]
CC50 at 48 h [1]: > 50000 nM
cell viability (% of control) (Vero E6 cells; 0.01 μM compound, 0.01 µM): 118.751 % of control and 91.986 % of control and 93.878 % of control
cell viability (% of control) (Vero E6 cells; 0.1 μM compound, 0.1 µM): 121.196 % of control and 124.104 % of control and 115.797 % of control
cell viability (% of control) (Vero E6 cells; 1 μM compound, 1 µM): 117.043 % of control and 115.382 % of control and 124.473 % of control
cell viability (% of control) (Vero E6 cells; 2 μM compound, 2 µM): 120.919 % of control and 113.536 % of control and 114.367 % of control
cell viability (% of control) (Vero E6 cells; 5 μM compound, 5 µM): 138.178 % of control and 143.9 % of control and 139.562 % of control
cell viability (% of control) (Vero E6 cells; 10 μM compound, 10 µM): 141.085 % of control and 129.595 % of control and 122.535 % of control
cell viability (% of control) (Vero E6 cells; 50 μM compound, 50 µM): 76.4283 % of control and 65.5331 % of control and 77.184 % of control
EC50 ([2]; Severe acute respiratory syndrome coronavirus 2, Huh-7, read-out: EC50 (Confidence 95%) in Huh7 cells): 836 nM
EC90 ([2]; Severe acute respiratory syndrome coronavirus 2, Huh-7, read-out: EC90 (Confidence 95%) in Huh7 cells): 1010 nM
% Inhibition (SARS-CoV-2 (B.1); 0.1 μM, replicates, sheet Fig.S3): 0%
% Inhibition (SARS-CoV-2 (B.1); 0.5 μM, replicates, sheet Fig.S3): 0%
% Inhibition (SARS-CoV-2 (B.1); 1 μM, replicates, sheet Fig.S3): 78.517%
% Inhibition (SARS-CoV-2 (B.1); 2 μM, replicates, sheet Fig.S3): 79.6525%
% Inhibition (SARS-CoV-2 (B.1); 5 μM, replicates, sheet Fig.S3): 91.2053%
% Inhibition (SARS-CoV-2 (B.1); 10 μM, replicates, sheet Fig.S3): 90.9393%
% Inhibition (SARS-CoV-2 (B.1); B.1, 0.01 uM, Vero E6, replicates): 0%
% Inhibition (SARS-CoV-2 (B.1); B.1, 0.1 uM, Vero E6, replicates): 0%
% Inhibition (SARS-CoV-2 (B.1); B.1, 0.25 uM, Vero E6, replicates): 0%
% Inhibition (SARS-CoV-2 (B.1); B.1, 0.5 uM, Vero E6, replicates): 0%
% Inhibition (SARS-CoV-2 (B.1); B.1, 1 uM, Vero E6, replicates): 0%
% Inhibition (SARS-CoV-2 (B.1); B.1, 2 uM, Vero E6, replicates, 2 µM): 3.841% and 72.4491%
% Inhibition (SARS-CoV-2 (B.1); B.1, 5 uM, Vero E6, replicates, 5 µM): 99.7181%
% Inhibition (SARS-CoV-2 (B.1); B.1, 10 uM, Vero E6, replicates, 10 µM): 99.9819%
% Inhibition (SARS-CoV-2 (B.1); B.1, 50 uM, Vero E6, replicates, 50 µM): 99.9874%
inhibition at 0.1 µM (SARS-CoV-2 (B.1); Severe acute respiratory syndrome coronavirus 2, Vero C1008, 0.1 μM, replicates, sheet Fig.S3): 0%
inhibition at 0.5 µM (SARS-CoV-2 (B.1); Severe acute respiratory syndrome coronavirus 2, Vero C1008, 0.5 μM, replicates, sheet Fig.S3): 0%
inhibition at 1 µM (SARS-CoV-2 (B.1); Severe acute respiratory syndrome coronavirus 2, Vero C1008, 1 μM, replicates, sheet Fig.S3): 77.4%
inhibition at 2 µM (SARS-CoV-2 (B.1); Severe acute respiratory syndrome coronavirus 2, Vero C1008, 2 μM, replicates, sheet Fig.S3): 78%
inhibition at 5 µM (SARS-CoV-2 (B.1); Severe acute respiratory syndrome coronavirus 2, Vero C1008, 5 μM, replicates, sheet Fig.S3): 93.5%
inhibition at 10 µM (SARS-CoV-2 (B.1); Severe acute respiratory syndrome coronavirus 2, Vero C1008, 10 μM, replicates, sheet Fig.S3): 93.2%
inhibition at 0.01 µM (SARS-CoV-2 (B.1); Severe acute respiratory syndrome coronavirus 2, Vero C1008, B.1, 0.01 uM, Vero E6, replicates): 0%
inhibition at 0.1 µM (SARS-CoV-2 (B.1); Severe acute respiratory syndrome coronavirus 2, Vero C1008, B.1, 0.1 uM, Vero E6, replicates): 0%
inhibition at 0.25 µM (SARS-CoV-2 (B.1); Severe acute respiratory syndrome coronavirus 2, Vero C1008, B.1, 0.25 uM, Vero E6, replicates): 0%
inhibition at 0.5 µM (SARS-CoV-2 (B.1); Severe acute respiratory syndrome coronavirus 2, Vero C1008, B.1, 0.5 uM, Vero E6, replicates): 0%
inhibition at 1 µM (SARS-CoV-2 (B.1); Severe acute respiratory syndrome coronavirus 2, Vero C1008, B.1, 1 uM, Vero E6, replicates): 0%
inhibition at 5 µM (SARS-CoV-2 (B.1); Severe acute respiratory syndrome coronavirus 2, Vero C1008, B.1, 5 uM, Vero E6, replicates): 99.5%
inhibition at 10 µM (SARS-CoV-2 (B.1); Severe acute respiratory syndrome coronavirus 2, Vero C1008, B.1, 10 uM, Vero E6, replicates): 99.9%
inhibition at 50 µM (SARS-CoV-2 (B.1); Severe acute respiratory syndrome coronavirus 2, Vero C1008, B.1, 50 uM, Vero E6, replicates): 99.9%
EC90 (SARS-CoV-2 (B.1); Severe acute respiratory syndrome coronavirus 2, Vero C1008, read-out: EC90 (Confidence 95%)): 2640 nM
EC50 (SARS-CoV-2 (B.1); Severe acute respiratory syndrome coronavirus 2, Vero C1008, MOI 0.05, 48 h): 2120 nM
EC50 ([3]; read-out: EC50 (Confidence 95%), replicon): 320 nM
EC90 ([3]; read-out: EC90 (Confidence 95%), replicon): 384 nM
EC50 ([4]; Severe acute respiratory syndrome coronavirus 2, Vero C1008, 48 h, read-out: EC50 in Vero E6 cells, SARS-CoV-2 (Beta, B.1.351)): 2300 nM
inhibition at 0.01 µM ([4]; Severe acute respiratory syndrome coronavirus 2, Vero C1008, beta, 0.01 uM, Vero E6, replicates): 0%
inhibition at 0.1 µM ([4]; Severe acute respiratory syndrome coronavirus 2, Vero C1008, beta, 0.1 uM, Vero E6, replicates): 0%
inhibition at 0.25 µM ([4]; Severe acute respiratory syndrome coronavirus 2, Vero C1008, beta, 0.25 uM, Vero E6, replicates): 0%
inhibition at 0.5 µM ([4]; Severe acute respiratory syndrome coronavirus 2, Vero C1008, beta, 0.5 uM, Vero E6, replicates): 0%
inhibition at 1 µM ([4]; Severe acute respiratory syndrome coronavirus 2, Vero C1008, beta, 1 uM, Vero E6, replicates): 0%
inhibition at 2 µM ([4]; Severe acute respiratory syndrome coronavirus 2, Vero C1008, beta, 2 uM, Vero E6, replicates): 29.7%
inhibition at 5 µM ([4]; Severe acute respiratory syndrome coronavirus 2, Vero C1008, beta, 5 uM, Vero E6, replicates): 99.6%
inhibition at 10 µM ([4]; Severe acute respiratory syndrome coronavirus 2, Vero C1008, beta, 10 uM, Vero E6, replicates): 99.9%
inhibition at 50 µM ([4]; Severe acute respiratory syndrome coronavirus 2, Vero C1008, beta, 50 uM, Vero E6, replicates): 99.9%
EC90 ([4]; Severe acute respiratory syndrome coronavirus 2, Vero C1008, read-out: EC90 (Confidence 95%), Vero-E6, Beta B.1.351): 2950 nM
% Inhibition ([4]; 0.01 uM, Vero E6, replicates): 0%
% Inhibition ([4]; 0.1 uM, Vero E6, replicates): 0%
% Inhibition ([4]; 0.25 uM, Vero E6, replicates): 0%
% Inhibition ([4]; 0.5 uM, Vero E6, replicates): 0%
% Inhibition ([4]; 1 uM, Vero E6, replicates): 0%
% Inhibition ([4]; 2 uM, Vero E6, replicates): 22.548%
% Inhibition ([4]; 5 uM, Vero E6, replicates): 99.5042%
% Inhibition ([4]; 10 uM, Vero E6, replicates): 99.9468%
% Inhibition ([4]; 50 uM, Vero E6, replicates): 99.9524%
EC50 ([5]; Severe acute respiratory syndrome coronavirus 2, Vero C1008, 48 h, read-out: EC50 in Vero E6 cells, SARS-CoV-2 (Delta, B.1.617.2)): 408 nM
inhibition at 0.01 µM ([5]; Severe acute respiratory syndrome coronavirus 2, Vero C1008, delta, 0.01 uM, Vero E6, replicates): 0%
inhibition at 0.1 µM ([5]; Severe acute respiratory syndrome coronavirus 2, Vero C1008, delta, 0.1 uM, Vero E6, replicates): 0%
inhibition at 0.25 µM ([5]; Severe acute respiratory syndrome coronavirus 2, Vero C1008, delta, 0.25 uM, Vero E6, replicates): 18.8%
inhibition at 0.5 µM ([5]; Severe acute respiratory syndrome coronavirus 2, Vero C1008, delta, 0.5 uM, Vero E6, replicates): 74.2%
inhibition at 1 µM ([5]; Severe acute respiratory syndrome coronavirus 2, Vero C1008, delta, 1 uM, Vero E6, replicates): 83.5%
inhibition at 2 µM ([5]; Severe acute respiratory syndrome coronavirus 2, Vero C1008, delta, 2 uM, Vero E6, replicates): 94.4%
inhibition at 5 µM ([5]; Severe acute respiratory syndrome coronavirus 2, Vero C1008, delta, 5 uM, Vero E6, replicates): 94.6%
inhibition at 10 µM ([5]; Severe acute respiratory syndrome coronavirus 2, Vero C1008, delta, 10 uM, Vero E6, replicates): 99.9%
inhibition at 50 µM ([5]; Severe acute respiratory syndrome coronavirus 2, Vero C1008, delta, 50 uM, Vero E6, replicates): 100%
EC90 ([5]; Severe acute respiratory syndrome coronavirus 2, Vero C1008, read-out: EC90 (Confidence 95%), Vero-E6, Delta B.1.617.2): 842 nM
% Inhibition ([5]; 0.01 uM, Vero E6, replicates): 0%
% Inhibition ([5]; 0.1 uM, Vero E6, replicates): 0%
% Inhibition ([5]; 0.25 uM, Vero E6, replicates): 20.35%
% Inhibition ([5]; 0.5 uM, Vero E6, replicates): 62.851%
% Inhibition ([5]; 1 uM, Vero E6, replicates): 82.2323%
% Inhibition ([5]; 2 uM, Vero E6, replicates): 91.97%
% Inhibition ([5]; 5 uM, Vero E6, replicates): 91.6601%
% Inhibition ([5]; 10 uM, Vero E6, replicates): 99.4778%
% Inhibition ([5]; 50 uM, Vero E6, replicates): 99.7579%
